Source: patent publication US20140001056A1 (priority 2011, published 2014)
Several values for one entry are separate records, joined by “and”; a condition that tells them apart may be missing. Equal entries are not always repeated. Where two headings read alike, the source gives them in different places.

Key:
α-HL heptamer = α-HL heptamer (Staphylococcus aureus, UniProt P09616)
WT-α-HL pore [1] = biological target: T1, WT-α-HL pore (Staphylococcus aureus, UniProt P09616); format: binding
MspA (NNNRRK mutant) = MspA (NNNRRK mutant) (Mycolicibacterium smegmatis, UniProt A0QR29, D117N/D118N/D120N/D145R/D161R/E166K)
WT-Kcv = WT-Kcv (Paramecium bursaria Chlorella virus 1, UniProt Q84568)
α-HL monomer = α-HL monomer (Staphylococcus aureus, UniProt P09616)
WT-α-HL pore [2] = biological target: T1, WT-α-HL pore; settings: cited from earlier work

Sequence of WT-Kcv (Q84568 whole entry, looked up): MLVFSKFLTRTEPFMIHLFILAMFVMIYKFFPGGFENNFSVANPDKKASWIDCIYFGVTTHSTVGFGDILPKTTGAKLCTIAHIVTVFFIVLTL
Sequence of α-HL monomer (P09616 27-319 limits assumed): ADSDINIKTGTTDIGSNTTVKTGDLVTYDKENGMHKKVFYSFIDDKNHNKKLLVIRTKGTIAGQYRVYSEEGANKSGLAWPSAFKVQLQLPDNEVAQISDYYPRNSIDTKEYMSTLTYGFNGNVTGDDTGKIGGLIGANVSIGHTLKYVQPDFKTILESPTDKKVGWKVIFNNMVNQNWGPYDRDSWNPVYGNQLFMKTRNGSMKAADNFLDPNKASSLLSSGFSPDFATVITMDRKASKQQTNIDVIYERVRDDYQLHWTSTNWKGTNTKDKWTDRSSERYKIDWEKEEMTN
T1 sequence (P09616 27-319 limits assumed): as above
Sequence of α-HL heptamer (P09616 27-319 limits assumed): as above
Sequence of MspA (NNNRRK mutant) (A0QR29 28-211 D117N/D118N/D120N/D145R/D161R/E166K limits assumed): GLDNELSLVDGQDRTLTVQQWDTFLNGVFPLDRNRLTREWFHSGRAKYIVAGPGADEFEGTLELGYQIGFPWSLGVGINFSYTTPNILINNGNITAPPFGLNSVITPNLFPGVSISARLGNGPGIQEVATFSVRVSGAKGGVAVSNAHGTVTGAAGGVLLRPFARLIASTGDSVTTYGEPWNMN

Which “Lag time before initiation of release” value (α-HL heptamer) does the source give for Fluorinated fos-choline [F6FC] here?
The value was 2.8 min and 4.3 min.

What about the “gα-HL, unitary conductance in the absence of βCD” value (WT-α-HL pore [1]; pH 7.5) of the same substance?
Its value is 650 ± 3 pS and 721 ± 4 pS.

And the “blockades or gating changes of MspA pores already inserted” value (MspA (NNNRRK mutant))?
Its value is “did not cause blockades or changes in the gating”.

And the “insertion of MspA pores into planar lipid bilayer” value (MspA (NNNRRK mutant))?
Its value is “No further insertion events occur”.

And the “blockades or gating changes of Kcv channels already inserted” value (WT-Kcv)?
Its value is “did not cause blockades or changes in the gating”.

What about the “insertion of Kcv channels into planar lipid bilayer” value (WT-Kcv) of the same substance?
Its value is “No openings are seen”.

And the “single-channel IV curve of Kcv” value (WT-Kcv)?
The value was “unchanged”.

What about the “Percent release of dye at end point” value (α-HL monomer) of the same substance?
Its value is 0.2% and 0.3%.

With β-cyclodextrin [βCD] as the substance, how does the Kd (WT-α-HL pore [1]) read?
Its Kd is 5.4 mM and 9.6 mM.

And the “gα-HL·βCD, unitary conductance with βCD bound” value (WT-α-HL pore [1])?
The value was 257 ± 3 pS and 232 ± 4 pS.

And the koff (WT-α-HL pore [1])?
The koff was 1.7 ± 0.1 × 10^3 s^−1 and 2.4 ± 0.3 × 10^3 s^−1.

What about the kon (WT-α-HL pore [1]) of the same substance?
The kon was 3.1 ± 0.1 × 10^5 M^−1s^−1 and 2.5 ± 0.4 × 10^5 M^−1s^−1.

What about the “gα-HL·βCD, unitary conductance with βCD bound” value (WT-α-HL pore [2]) of the same substance?
The value was 253 ± 4 pS and 240 ± 3 pS.

And the koff (WT-α-HL pore [2])?
The koff was 2.1 ± 0.2 × 10^3 s^−1 and 1.3 ± 0.1 × 10^3 s^−1.

And the kon (WT-α-HL pore [2])?
The kon was 2.8 ± 0.2 × 10^5 M^−1s^−1 and 4.0 ± 0.3 × 10^5 M^−1s^−1.

Which “Initial rate of release of dye” value (α-HL heptamer) does the source give for “C6F13C2H4—S-poly[tris(hydroxymethyl)aminomethane] [F6TAC]” here?
Its value is 16 % min^−1.

What about the “Lag time before initiation of release” value (α-HL heptamer) of the same substance?
Its value is 4.8 min.

And the “Initial rate of release of dye” value (α-HL monomer)?
The value was 6.5 % min^−1.

And the “Lag time before initiation of release” value (α-HL monomer)?
Its value is 7.5 min.

With Fluorinated octyl maltoside [F6OM] as the substance, how does the “Initial rate of release of dye” value (α-HL heptamer) read?
The value was 16 % min^−1.

What about the “Lag time before initiation of release” value (α-HL heptamer) of the same substance?
The value was 1.8 min.

What about the “Initial rate of release of dye” value (α-HL monomer) of the same substance?
Its value is 4 % min^−1.

What about the “Lag time before initiation of release” value (α-HL monomer) of the same substance?
The value was 4.4 min.
